In the supplement of paper PMC10307832:

What was measured:
Assay in all cases: relative viability (nuclei count vs DMSO), 5 days (fraction); higher = more cells survive
NCI-H23 = test system: NCI-H23
Outline: (§1)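 The day after seeding in 1536-well plates, lung cancer cell lines were treated by pin tool with a single drug, or with a fixed anchor-drug dose together with five library-drug doses (not always all listed) in √10 steps. After 5 days, a combined fix-and-stain solution (final 0.05% Triton X-100, 1% formaldehyde, 1 ug/ml Hoechst) was added. Nuclei counted on 4× images gave relative viability as treated counts over vehicle counts, reported as the median of duplicate plates.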

HCC-78 = test system: HCC-78
Outline: as §1

RERF-LC-KJ = test system: RERF-LC-KJ
Outline: as §1

EKVX = test system: EKVX
Outline: as §1

EPLC-272H = test system: EPLC-272H
Outline: as §1

LU99A = test system: LU99A
Outline: as §1

LK-2 = test system: LK-2
Outline: as §1

HCC-827 = test system: HCC-827
Outline: as §1

PC-14 = test system: PC-14
Outline: as §1

SW 1573 = test system: SW 1573
Outline: as §1

NCI-H2405 = test system: NCI-H2405
Outline: as §1

SK-LU-1 = test system: SK-LU-1
Outline: as §1

NCI-H2126 = test system: NCI-H2126
Outline: as §1

NCI-H322M = test system: NCI-H322M
Outline: as §1

NCI-H1563 = test system: NCI-H1563
Outline: as §1

NCI-H1666 = test system: NCI-H1666
Outline: as §1

EMC-BAC-2 = test system: EMC-BAC-2
Outline: as §1

NCI-H1975 = test system: NCI-H1975
Outline: as §1

LCLC-103H = test system: LCLC-103H
Outline: as §1

Cc1sc2c(c1C)C(c1ccc(Cl)cc1)=N[C@@H](CC(=O)OC(C)(C)C)c1nnc(C)n1-2 [JQ1] + Cc1nc(NC(=O)N2CCC[C@H]2C(N)=O)sc1-c1ccnc(C(C)(C)C(F)(F)F)c1 [Alpelisib] (partner 2 µM)
relative viability (NCI-H23; first compound 0.04 µM): 0.62 | relative viability (NCI-H23; first compound 0.1265 µM): 0.726 | relative viability (NCI-H23; first compound 0.4 µM): 0.454 | relative viability (NCI-H23; first compound 1.265 µM): 0.292 | relative viability (NCI-H23; first compound 4 µM): 0.297 | relative viability (HCC-78; first compound 0.04 µM): 0.336 | relative viability (HCC-78; first compound 0.1265 µM): 0.34 | relative viability (HCC-78; first compound 0.4 µM): 0.281 | relative viability (HCC-78; first compound 1.265 µM): 0.234 | relative viability (HCC-78; first compound 4 µM): 0.252 | relative viability (RERF-LC-KJ; first compound 0.04 µM): 0.806 | relative viability (RERF-LC-KJ; first compound 0.1265 µM): 0.925 | relative viability (RERF-LC-KJ; first compound 0.4 µM): 0.793 | relative viability (RERF-LC-KJ; first compound 1.265 µM): 0.743 | relative viability (RERF-LC-KJ; first compound 4 µM): 0.427 | relative viability (EKVX; first compound 0.04 µM): 0.834 | relative viability (EKVX; first compound 0.1265 µM): 0.8 | relative viability (EKVX; first compound 0.4 µM): 0.688 | relative viability (EKVX; first compound 1.265 µM): 0.729 | relative viability (EKVX; first compound 4 µM): 0.664 | relative viability (EPLC-272H; first compound 0.04 µM): 0.897 | relative viability (EPLC-272H; first compound 0.1265 µM): 0.904 | relative viability (EPLC-272H; first compound 0.4 µM): 0.889 | relative viability (EPLC-272H; first compound 1.265 µM): 0.423 | relative viability (EPLC-272H; first compound 4 µM): 0.376 | relative viability (LU99A; first compound 0.04 µM): 0.537 | relative viability (LU99A; first compound 0.1265 µM): 0.544 | relative viability (LU99A; first compound 0.4 µM): 0.424 | relative viability (LU99A; first compound 1.265 µM): 0.307 | relative viability (LU99A; first compound 4 µM): 0.235 | relative viability (LK-2; first compound 0.04 µM): 1.05 | relative viability (LK-2; first compound 0.1265 µM): 1.06 | relative viability (LK-2; first compound 0.4 µM): 0.55 | relative viability (LK-2; first compound 1.265 µM): 0.237 | relative viability (LK-2; first compound 4 µM): 0.16 | relative viability (HCC-827; first compound 0.04 µM): 0.929 | relative viability (HCC-827; first compound 0.4 µM): 0.672 | relative viability (HCC-827; first compound 1.265 µM): 1.07 | relative viability (HCC-827; first compound 4 µM): 1.11 | relative viability (PC-14; first compound 0.04 µM): 0.974 | relative viability (PC-14; first compound 0.1265 µM): 0.921 | relative viability (PC-14; first compound 0.4 µM): 0.885 | relative viability (PC-14; first compound 1.265 µM): 0.59 | relative viability (PC-14; first compound 4 µM): 0.351 | relative viability (SW 1573; first compound 0.04 µM): 0.808 | relative viability (SW 1573; first compound 0.1265 µM): 0.702 | relative viability (SW 1573; first compound 0.4 µM): 0.714 | relative viability (SW 1573; first compound 1.265 µM): 0.439 | relative viability (SW 1573; first compound 4 µM): 0.383 | relative viability (NCI-H2405; first compound 0.04 µM): 0.824 | relative viability (NCI-H2405; first compound 0.4 µM): 0.74 | relative viability (NCI-H2405; first compound 1.265 µM): 0.436 | relative viability (NCI-H2405; first compound 4 µM): 0.256 | relative viability (SK-LU-1; first compound 0.04 µM): 1.11 | relative viability (SK-LU-1; first compound 0.1265 µM): 0.586 | relative viability (SK-LU-1; first compound 0.4 µM): 0.287 | relative viability (SK-LU-1; first compound 1.265 µM): 0.167 | relative viability (SK-LU-1; first compound 4 µM): 0.158 | relative viability (NCI-H2126; first compound 0.04 µM): 0.797 | relative viability (NCI-H2126; first compound 0.1265 µM): 0.682 | relative viability (NCI-H2126; first compound 0.4 µM): 0.681 | relative viability (NCI-H2126; first compound 1.265 µM): 0.516 | relative viability (NCI-H2126; first compound 4 µM): 0.47 | relative viability (NCI-H322M; first compound 0.04 µM): 0.752 | relative viability (NCI-H322M; first compound 0.1265 µM): 0.77 | relative viability (NCI-H322M; first compound 0.4 µM): 0.862 | relative viability (NCI-H322M; first compound 1.265 µM): 0.68 | relative viability (NCI-H322M; first compound 4 µM): 0.587 | relative viability (NCI-H1563; first compound 0.04 µM): 0.846 | relative viability (NCI-H1563; first compound 0.1265 µM): 0.854 | relative viability (NCI-H1563; first compound 0.4 µM): 0.932 | relative viability (NCI-H1563; first compound 1.265 µM): 0.573 | relative viability (NCI-H1563; first compound 4 µM): 0.613 | relative viability (NCI-H1666; first compound 0.04 µM): 0.802 | relative viability (NCI-H1666; first compound 0.1265 µM): 1.04 | relative viability (NCI-H1666; first compound 0.4 µM): 0.696 | relative viability (NCI-H1666; first compound 1.265 µM): 0.507 | relative viability (NCI-H1666; first compound 4 µM): 0.444 | relative viability (EMC-BAC-2; first compound 0.04 µM): 0.663 | relative viability (EMC-BAC-2; first compound 0.1265 µM): 0.749 | relative viability (EMC-BAC-2; first compound 0.4 µM): 0.576 | relative viability (EMC-BAC-2; first compound 1.265 µM): 0.439 | relative viability (EMC-BAC-2; first compound 4 µM): 0.386 | relative viability (NCI-H1975; first compound 0.04 µM): 0.662 | relative viability (NCI-H1975; first compound 0.1265 µM): 0.424 | relative viability (NCI-H1975; first compound 0.4 µM): 0.578 | relative viability (NCI-H1975; first compound 1.265 µM): 0.348 | relative viability (NCI-H1975; first compound 4 µM): 0.335 | relative viability (LCLC-103H; first compound 0.04 µM): 0.957 | relative viability (LCLC-103H; first compound 0.1265 µM): 0.828 | relative viability (LCLC-103H; first compound 0.4 µM): 0.751 | relative viability (LCLC-103H; first compound 1.265 µM): 0.572
